Assay results as given in US20120121540A1 (priority 2007, published 2012).

Experiment: HCV replicon assay (luciferase reporter, ET cell line)
Type: cell-based
Settings: Hepatitis C virus, HCV replicon luciferase activity in ET cells
Procedure, shortened: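 EC50 and, via WST-1 cytotoxicity, TC50 were fitted with a Hill-coefficient equation to % inhibition across 10 two-fold dilutions. Compounds at 0.1 nM-[…] with 0.5% DMSO were applied 24 h post-seeding to replicon-bearing ET cells (luc-ubi-neo/NS3-5B, adaptive mutations). Firefly luciferase signal was measured after 48-72 h.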

SMILES | inhibition at 10 µM [%]
O=C(c1nc2c(C(F)(F)F)cc(-c3ccoc3)cn2c1Cl)N1CCN(c2noc3ccccc23)CC1 [Compound 551, (4-Benzo[d]isoxazol-3-yl-piperazin-1-yl)-(3-Chloro-6-furan-3-yl-8-trifluoromethyl-imidazo[1,2-a]pyridine-2-yl)-methanone] | 38.5
O=C(c1nc2c(C(F)(F)F)cc(-c3ccoc3)cn2c1Cl)N1CCC(n2c(=O)[nH]c3ccccc32)CC1 [Compound 552, 1-[1-(3-Chloro-6-furan-3-yl-8-trifluoromethyl-imidazo[1,2-a]pyridine-2-carbonyl)-piperidin-4-yl]-1,3-dihydro-benzoimidazol-2-one] | 6
O=C(c1nc2c(C(F)(F)F)cc(-c3ccoc3)cn2c1Cl)N1CCC(n2cc(-c3ccccc3)[nH]c2=O)CC1 [Compound 553, 1-[1-(3-Chloro-6-furan-3-yl-8-trifluoromethyl-imidazo[1,2-a]pyridine-2-carbonyl)-piperidin-4-yl]-4-phenyl-1,3-dihydro-imidazol-2-one] | 43.6
O=C(NCCc1ccccn1)c1nc2c(C(F)(F)F)cc(-c3ccoc3)cn2c1Cl [Compound 554, 3-Chloro-6-furan-3-yl-8-trifluoromethyl-imidazo[1,2-a]pyridine-2-carboxylic acid (2-pyridin-2-yl-ethyl)-amide] | 97.4
O=C(c1nc2c(C(F)(F)F)cc(-c3ccoc3)cn2c1Cl)N1CC=C(c2ccccc2F)CC1 [Compound 555, (3-Chloro-6-furan-3-yl-8-trifluoromethyl-imidazo[1,2-a]pyridin-2-yl)-[4-(2-fluoro-phenyl)-3,6-dihydro-2H-pyridin-1-yl)-methanone] | 95.5
O=C(c1nc2c(C(F)(F)F)cc(-c3ccoc3)cn2c1Cl)N1CCC(c2nccs2)CC1 [Compound 556, (3-Chloro-6-furan-3-yl-8-trifluoromethyl-imidazo[1,2-a]pyridin-2-yl)-(4-thiazol-2-yl-piperidin-1-yl)-methanone] | 99.5
O=C(c1nc2c(C(F)(F)F)cc(-c3ccoc3)cn2c1Cl)N1CCC(c2cscn2)CC1 [Compound 557, (3-Chloro-6-furan-3-yl-8-trifluoromethyl-imidazo[1,2-a]pyridin-2-yl)-(4-thiazol-4-yl-piperidin-1-yl)-methanone] | 93
O=C(c1nc2c(C(F)(F)F)cc(-c3ccoc3)cn2c1Cl)N1CC=C(c2c[nH]cn2)CC1 [Compound 558, (3-Chloro-6-furan-3-yl-8-trifluoromethyl-imidazo[1,2-a]pyridin-2-yl)-[4-(1H-imidazol-4-yl)-3,6-dihydro-2H-pyridin-1-yl]-methanone] | 89.3
O=C(c1nc2c(C(F)(F)F)cc(-c3ccoc3)cn2c1Cl)N1CC=C(c2nccs2)CC1 [Compound 559, (3-Chloro-6-furan-3-yl-8-trifluoromethyl-imidazo[1,2-a]pyridine-2-yl)-(4-thiazol-2-yl-3,6-dihydro-2H-pyridin-1-yl)-methanone] | 99.1
CCN(CC)C(=O)c1ccccc1C1=CCN(C(=O)c2nc3c(C(F)(F)F)cc(-c4ccoc4)cn3c2Cl)CC1 [Compound 560, 2-[1-(3-Chloro-6-furan-3-yl-8-trifluoromethyl-imidazo[1,2-a]pyridine-2-carbonyl)-1,2,3,6-tetrahydro-pyridin-4-yl]-N,N-diethyl-benzamide] | 80.9
O=C(c1nc2c(C(F)(F)F)cc(-c3ccoc3)cn2c1Cl)N1CC=C(c2ccccc2CO)CC1 [Compound 561, (3-Chloro-6-furan-3-yl-8-trifluoromethyl-imidazo[1,2-a]pyridin-2-yl)-[4-(2-hydroxymethyl-phenyl)-3,6-dihydro-2H-pyridin-1-yl)-methanone] | 89.1
COc1cccc(OC)c1C1=CCN(C(=O)c2nc3c(C(F)(F)F)cc(-c4ccoc4)cn3c2Cl)CC1 [Compound 562, (3-Chloro-6-furan-3-yl-8-trifluoromethyl-imidazo[1,2-a]pyridin-2-yl)-[4-(2,6-dimethoxy-phenyl)-3,6-dihydro-2H-pyridin-1-yl)-methanone] | 13.4
N#Cc1ccccc1C1=CCN(C(=O)c2nc3c(C(F)(F)F)cc(-c4ccoc4)cn3c2Cl)CC1 [Compound 563, 2-[1-(3-Chloro-6-furan-3-yl-8-trifluoromethyl-imidazo[1,2-a]pyridine-2-carbonyl)-1,2,3,6-tetrahydro-pyridin-4-yl]-benzonitrile] | 97.4
O=C(c1nc2c(C(F)(F)F)cc(-c3ccoc3)cn2c1Cl)N1CC=C(c2c(F)cccc2F)CC1 [Compound 564, (3-Chloro-6-furan-3-yl-8-trifluoromethyl-imidazo[1,2-a]pyridin-2-yl)-[4-(2,6-difluoro-phenyl)-3,6-dihydro-2H-pyridin-1-yl)-methanone] | 99
N#Cc1cccc(F)c1C1=CCN(C(=O)c2nc3c(C(F)(F)F)cc(-c4ccoc4)cn3c2Cl)CC1 [Compound 565, 2-[1-(3-Chloro-6-furan-3-yl-8-trifluoromethyl-imidazo[1,2-a]pyridine-2-carbonyl)-1,2,3,6-tetrahydro-pyridin-4-yl]-3-fluoro-benzonitrile] | 98
O=C(c1nc2c(C(F)(F)F)cc(-c3ccoc3)cn2c1Cl)N1CC=C(c2cscn2)CC1 [Compound 566] | 99.4
C#Cc1ccccc1C1=CCN(C(=O)c2nc3c(C(F)(F)F)cc(-c4ccoc4)cn3c2Cl)CC1 [Compound 567, (3-Chloro-6-furan-3-yl-8-trifluoromethyl-imidazo[1,2-a]pyridin-2-yl)-[4-(2-ethynyl-phenyl)-3,6-dihydro-2H-pyridin-1-yl)-methanone] | 81.3
O=C(c1nc2c(C(F)(F)F)cc(-c3ccoc3)cn2c1Cl)N1CC=C(c2cncs2)CC1 [Compound 568] | 98.8
N#Cc1ccc(F)cc1C1=CCN(C(=O)c2nc3c(C(F)(F)F)cc(-c4ccoc4)cn3c2Cl)CC1 [Compound 569, 2-[1-(3-Chloro-6-furan-3-yl-8-trifluoromethyl-imidazo[1,2-a]pyridine-2-carbonyl)-1,2,3,6-tetrahydro-pyridin-4-yl]-4-fluoro-benzonitrile] | 85.3
N#Cc1cc(F)ccc1C1=CCN(C(=O)c2nc3c(C(F)(F)F)cc(-c4ccoc4)cn3c2Cl)CC1 [Compound 570, 2-[1-(3-Chloro-6-furan-3-yl-8-trifluoromethyl-imidazo[1,2-a]pyridine-2-carbonyl)-1,2,3,6-tetrahydro-pyridin-4-yl]-5-fluoro-benzonitrile] | 89.1
O=C(c1nc2c(C(F)(F)F)cc(-c3ccoc3)cn2c1Cl)N1CC=C(c2ncccc2F)CC1 [Compound 571, (3-Chloro-6-furan-3-yl-8-trifluoromethyl-imidazo[1,2-a]pyridin-2-yl)-(3-fluoro-3′,6′-dihydro-2′H-[2,4′]bipyridinyl-1′-yl)-methanone] | 97.8
O=C(c1nc2c(C(F)(F)F)cc(-c3ccoc3)cn2c1Cl)N1CC=C(c2ccncc2F)CC1 [Compound 572, (3-Chloro-6-furan-3-yl-8-trifluoromethyl-imidazo[1,2-1]pyridine-2-yl)-(3′-fluoro-3,6-dihydro-2H-[4,4′]bipyridinyl-1-yl)-methanone] | 98.2
O=C(c1nc2c(C(F)(F)F)cc(-c3ccoc3)cn2c1Cl)N1CC=C(c2ncc(CO)s2)CC1 [Compound 573, (3-Chloro-6-furan-3-yl-8-trifluoromethyl-imidazo[1,2-a]pyridine-2-yl)-[4-(5-hydroxymethyl-thiazol-2-yl)-3,6-dihydro-2H-pyridin-1-yl]-methanone] | 91.2
O=C(c1nc2c(C(F)(F)F)cc(-c3ccoc3)cn2c1Cl)N1CC=C(OS(=O)(=O)C(F)(F)F)CC1 [Compound 574, Trifluoro-methanesulfonic Acid 1-(3-chloro-6-furan-3-yl-8-trifluoromethyl-imidazo[1,2-a]pyridine-2-carbonyl)-1,2,3,6-tetrahydro-pyridin-4-yl Ester] | 79.1
O=C(c1nc2c(C(F)(F)F)cc(-c3ccoc3)cn2c1Cl)N1CC=C(c2ccoc2)CC1 [Compound 575, (3-Chloro-6-furan-3-yl-8-trifluoromethyl-imidazo[1,2-a]pyridine-2-yl)-(4-furan-3-yl-3,6-dihydro-2H-pyridin-1-yl)-methanone] | 94.3
O=C(c1nc2c(C(F)(F)F)cc(-c3ccoc3)cn2c1Cl)N1CC=C(c2cccc(F)c2)CC1 [Compound 576, (3-Chloro-6-furan-3-yl-8-trifluoromethyl-imidazo[1,2-a]pyridin-2-yl)-[4-(3-fluoro-phenyl)-3,6-dihydro-2H-pyridin-1-yl)-methanone] | 82.6
CN(C)S(=O)(=O)c1ccccc1C1=CCN(C(=O)c2nc3c(C(F)(F)F)cc(-c4ccoc4)cn3c2Cl)CC1 [Compound 577, 2-[1-(3-Chloro-6-furan-3-yl-8-trifluoromethyl-imidazo[1,2-a]pyridin-2-carbonyl)-1,2,3,6-tetrahydro-pyridin-4-yl)-N,N-dimethyl-benzenesulfonamide] | 71.2
Cn1cc(C2=CCN(C(=O)c3nc4c(C(F)(F)F)cc(-c5ccoc5)cn4c3Cl)CC2)cn1 [Compound 578, (3-Chloro-6-furan-3-yl-8-trifluoromethyl-imidazo[1,2-a]pyridin-2-yl)-[4-(1-methyl-1H-pyrazol-4-yl)-3,6-dihydro-2H-pyridin-1-yl)-methanone] | 97.2
O=C(c1nc2c(C(F)(F)F)cc(-c3ccoc3)cn2c1Cl)N1CC=C(c2cn[nH]c2)CC1 [Compound 579, (3-Chloro-6-furan-3-yl-8-trifluoromethyl-imidazo[1,2-a]pyridin-2-yl)-[4-(1-1H-pyrazol-4-yl)-3,6-dihydro-2H-pyridin-1-yl)-methanone] | 97.6
O=C(c1nc2c(C(F)(F)F)cc(-c3ccoc3)cn2c1Cl)N1CC=C(c2cccnc2F)CC1 [Compound 581, (3-Chloro-6-furan-3-yl-8-trifluoromethyl-imidazo[1,2-a]pyridin-2-yl)-(2-fluoro-3′,6′-dihydro-2′H-[3,4′]bipyridinyl-1′-yl)-methanone] | 98.2
